Laboratory results published in publication PMC10247784, “Physiological activation of human and mouse bitter taste receptors by bile acids” (Communications Biology, 2023).

Biological target: T1, mouse Tas2r126 (Mus musculus, UniProt P59532)
T1 construct: expressed in transfected cells; host or cells: HEK293T-Gα16gust44
T1 sequence (P59532 1-308): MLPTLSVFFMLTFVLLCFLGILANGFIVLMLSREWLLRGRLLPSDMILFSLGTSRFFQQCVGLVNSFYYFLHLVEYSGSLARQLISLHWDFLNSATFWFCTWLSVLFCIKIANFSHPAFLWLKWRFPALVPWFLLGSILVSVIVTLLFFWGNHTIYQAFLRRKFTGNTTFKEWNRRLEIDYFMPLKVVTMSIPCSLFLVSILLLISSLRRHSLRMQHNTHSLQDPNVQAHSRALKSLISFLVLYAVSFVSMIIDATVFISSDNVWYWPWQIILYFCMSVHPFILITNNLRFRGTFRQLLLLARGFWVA
Assay: Calcium imaging assay (FLIPR), HEK293T-Gα16gust44 cells transfected with mouse Tas2r126
Assay type: cell-based
Settings: for Δ F/F: Tas2r126
Method: This set of bile acids was chosen because of their commercial availability in high purities, their diversity within the class of bile acids and their previous detection and quantitation in human blood. Stock solutions were prepared in DMSO.
As basal growth medium for the HEK293T-Gα16gust44 cell line[17],[59] served Dulbecco’s modified eagle medium (DMEM) (Thermo Fisher Scientific, Darmstadt, Germany) supplemented with 10 % fetal bovine serum (Sigma-Aldrich, Steinheim, Germany), 2 mM L-glutamine (Sigma-Aldrich, Steinheim, Germany), 100 units/ml penicillin (Sigma Aldrich, Steinheim, Germany) and 100 µg/ml streptomycin (Sigma Aldrich, Steinheim, Germany). Growth conditions were 37 °C, 5 % CO2 and saturated air-humidity[60].
HEK293T-Gα16gust44 cells were seeded on poly-D-lysine (10 µg/ml) coated 96-well plates to reach a confluence of 40-60 % the next day. For transient transfection 150 ng of plasmid DNA containing the receptor of interest and 0.3 µl lipofectamine 2000 (Thermo Fisher Scientific, Darmstadt, Germany) per well were used and transfection took place according to the manual of lipofectamine 2000. […] The empty vector DNA (mock) was transfected as negative control[14],[41].
Cells were loaded using the calcium-sensitive fluorescent dye Fluo-4-AM (Abcam, Cambridge, Great Britain) in the presence of 2.5 mM probenecid (Sigma-Aldrich, Steinheim, Germany) the day after transfection[13],[41]. 1 h after loading, cells were washed with C1 buffer using a BioTek Cell Washer, incubated in the dark for half an hour and washed again. For automated agonist application and measurement of fluorescence changes, a FLIPR^TETRA device (Molecular Devices, San José, United States) was used. Viability of cells was tested by application of 100 nM Somatostatin 14 (Bachem, Bubendorf, Switzerland)[42].
Measured data were negative control corrected by subtracting the signal of the mock-transfected cells and exported to Microsoft Excel using the FLIPR software ScreenWorks 4.2. In Microsoft Excel software, standardization of maximum fluorescence intensities to the basal fluorescence and normalization to the buffer-only control was done to calculate the relative fluorescence changes (ΔF/F).
Initial screening experiments performed in duplicate wells were confirmed by at least one replication and representative traces were selected for display. All dose-response relationships were determined by three independent experiments (biological replicates) performed in duplicates (technical replicates). Threshold concentrations, defined as lowest substance concentrations leading to statistically significant elevated fluorescence changes in receptor-transfected cells compared with empty vector-transfected cells, were determined using SigmaPlot with Student’s t-test to evaluate statistical significance (p < 0.01).

- Δ F/F (conc. 0,01 mM): 0.008892
- Δ F/F (conc. 0,1 mM): 0.01338
- Δ F/F (conc. 0,03 mM): 0.009319
- Δ F/F (conc. 0,3 mM): 0.02767
- Δ F/F (conc. 0,001 mM): 0.01077
- Δ F/F (conc. 1 mM): 0.17
- Δ F/F (conc. 0,003 mM): 0.01208
- RLU (Time 0 s): 0 RLU
- RLU (Time 2 s): -8.029 RLU
- RLU (Time 4 s): 1.1384 RLU
- RLU (Time 6 s): 10.4148 RLU
- RLU (Time 8 s): -13.1228 RLU
- RLU (Time 12 s): 17.4885 RLU
- RLU (Time 14 s): -0.7257 RLU
- RLU (Time 16 s): -10.5283 RLU
- RLU (Time 18 s): 16.8146 RLU
- RLU (Time 18.781 s): 23.6211 RLU
- RLU (Time 20.781 s): -40.338 RLU
- RLU (Time 22.781 s): 22.3326 RLU
- RLU (Time 24.781 s): 63.7084 RLU
- RLU (Time 26.781 s): 76.1804 RLU
- RLU (Time 28.781 s): 137.207 RLU
- RLU (Time 30.781 s): 214.617 RLU
- RLU (Time 32.781 s): 318.834 RLU
- RLU (Time 34.781 s): 384.223 RLU
- RLU (Time 36.781 s): 455.203 RLU
- RLU (Time 38.781 s): 531.38 RLU
- RLU (Time 40.781 s): 571.264 RLU
- RLU (Time 42.781 s): 599.999 RLU
- RLU (Time 44.781 s): 648.8 RLU
- RLU (Time 46.781 s): 709.576 RLU
- RLU (Time 48.781 s): 742.486 RLU
- RLU (Time 50.781 s): 750.019 RLU
- RLU (Time 52.781 s): 771.673 RLU
- RLU (Time 54.781 s): 762.339 RLU
- RLU (Time 56.781 s): 801.528 RLU
- RLU (Time 58.781 s): 778.328 RLU
- RLU (Time 60.781 s): 814.918 RLU
- RLU (Time 62.781 s): 813.898 RLU
- RLU (Time 64.781 s): 822.442 RLU
- RLU (Time 66.781 s): 857.883 RLU
- RLU (Time 68.781 s): 851.231 RLU
- RLU (Time 70.781 s): 849.562 RLU
- RLU (Time 72.781 s): 871.931 RLU
- RLU (Time 74.781 s): 863.674 RLU
- RLU (Time 76.781 s): 844.593 RLU
- RLU (Time 78.781 s): 886.207 RLU
- RLU (Time 80.781 s): 865.546 RLU
- RLU (Time 82.781 s): 883.065 RLU
- RLU (Time 84.781 s): 898.032 RLU
- RLU (Time 86.781 s): 896.748 RLU
- RLU (Time 88.781 s): 900.918 RLU
- RLU (Time 90.781 s): 874.944 RLU
- RLU (Time 92.781 s): 885.691 RLU
- RLU (Time 94.781 s): 894.456 RLU
- RLU (Time 96.781 s): 901.176 RLU
- RLU (Time 98.781 s): 886.538 RLU
- RLU (Time 100.781 s): 892.555 RLU
- RLU (Time 102.781 s): 881.874 RLU
- RLU (Time 104.781 s): 894.645 RLU
- RLU (Time 106.781 s): 887.982 RLU
- RLU (Time 108.781 s): 886.297 RLU
- RLU (Time 110.781 s): 884.059 RLU
- RLU (Time 112.781 s): 887.824 RLU
- RLU (Time 114.781 s): 848.107 RLU
- RLU (Time 116.781 s): 861.685 RLU
- RLU (Time 118.781 s): 828.869 RLU
- RLU (Time 120.781 s): 825.037 RLU
- RLU (Time 122.781 s): 836.581 RLU
- RLU (Time 124.781 s): 866.188 RLU
- RLU (Time 126.781 s): 858.575 RLU
- RLU (Time 128.781 s): 826.803 RLU
- RLU (Time 130.781 s): 818.964 RLU
- RLU (Time 132.781 s): 847.33 RLU
- RLU (Time 134.781 s): 852.99 RLU
- RLU (Time 136.781 s): 809.769 RLU
- RLU (Time 137.563 s): 804.878 RLU
- RLU (Time 143.563 s): 793.514 RLU
- RLU (Time 149.563 s): 748.056 RLU
- RLU (Time 155.563 s): 797.54 RLU
- RLU (Time 161.563 s): 777.219 RLU
- RLU (Time 167.563 s): 736.981 RLU
- RLU (Time 173.563 s): 734.04 RLU
- RLU (Time 179.563 s): 691.98 RLU
- RLU (Time 185.563 s): 705.69 RLU
- RLU (Time 191.563 s): 730.013 RLU
- RLU (Time 197.563 s): 719.476 RLU
- RLU (Time 203.563 s): 676.213 RLU
- RLU (Time 209.563 s): 680.042 RLU
- RLU (Time 215.563 s): 670.332 RLU
- RLU (Time 221.563 s): 696.914 RLU
- RLU (Time 227.563 s): 687.176 RLU
- RLU (Time 233.563 s): 674.703 RLU
- RLU (Time 239.563 s): 658.755 RLU
- RLU (Time 245.563 s): 686.39 RLU
- RLU (Time 293.563 s): 673.116 RLU
- RLU (Time 299.563 s): 656.796 RLU
- RLU (Time 305.563 s): 663.675 RLU
- RLU (Time 311.563 s): 633.551 RLU
- RLU (Time 317.563 s): 673.002 RLU
- RLU (Time 323.563 s): 666.023 RLU
- RLU (Time 329.563 s): 652.752 RLU
- RLU (Time 335.563 s): 658.256 RLU
- RLU (Time 341.563 s): 702.617 RLU
- RLU (Time 347.563 s): 659.503 RLU
- RLU (Time 353.563 s): 654.507 RLU
- RLU (Time 359.563 s): 650.344 RLU
- Activation threshold concentration Tas2r126 (p < 0.01 vs empty vector): 100 µM
SMILES: C[C@H](CCC(=O)NCC(=O)O)[C@H]1CC[C@H]2[C@@H]3[C@H](O)C[C@@H]4C[C@H](O)CC[C@]4(C)[C@H]3C[C@H](O)[C@]12C [Glycocholic Acid, glycocholic acid]
